Experimental data reported in the CheMixHub viscosity set.

Assay: xn = mol fraction of the nth substance listed

CCOCCO + O
viscosity [mPa·s]
Conditions | 101 kPa | 101.33 kPa
293.15 K, x1 = 0.02202 | 1.422 | –
293.15 K, x1 = 0.04761 | 2.02 | –
293.15 K, x1 = 0.07883 | 2.731 | –
293.15 K, x1 = 0.1177 | 3.402 | –
293.15 K, x1 = 0.1666 | 3.943 | –
293.15 K, x1 = 0.2304 | 4.205 | –
293.15 K, x1 = 0.318 | 4.219 | –
293.15 K, x1 = 0.4441 | 3.838 | –
293.15 K, x1 = 0.5303 | 3.471 | –
293.15 K, x1 = 0.6418 | 3.081 | –
293.15 K, x1 = 0.7202 | 2.836 | –
293.15 K, x1 = 0.8271 | 2.502 | –
293.15 K, x1 = 0.9078 | 2.27 | –
298.15 K, x1 = 0.0104 | – | 1.04
298.15 K, x1 = 0.0217 | – | 1.25
298.15 K, x1 = 0.0341 | – | 1.44
298.15 K, x1 = 0.0476 | – | 1.7
298.15 K, x1 = 0.0625 | – | 1.97
298.15 K, x1 = 0.0789 | – | 2.26
298.15 K, x1 = 0.0972 | – | 2.54
298.15 K, x1 = 0.1176 | – | 2.8
298.15 K, x1 = 0.1406 | – | 3.05
298.15 K, x1 = 0.1666 | – | 3.24
298.15 K, x1 = 0.1964 | – | 3.38
298.15 K, x1 = 0.2307 | – | 3.48
298.15 K, x1 = 0.2707 | – | 3.47
298.15 K, x1 = 0.3181 | – | 3.45
298.15 K, x1 = 0.3749 | – | 3.33
298.15 K, x1 = 0.4443 | – | 3.14
298.15 K, x1 = 0.5311 | – | 2.89
298.15 K, x1 = 0.6428 | – | 2.58
298.15 K, x1 = 0.7916 | – | 2.19
298.15 K, x2 = 0.11 | – | 1.991
298.15 K, x2 = 0.2089 | – | 2.215
298.15 K, x2 = 0.294 | – | 2.441
298.15 K, x2 = 0.4058 | – | 2.765
298.15 K, x2 = 0.5043 | – | 3.031
298.15 K, x2 = 0.5995 | – | 3.311
298.15 K, x2 = 0.7033 | – | 3.504
298.15 K, x2 = 0.8037 | – | 3.376
298.15 K, x2 = 0.902 | – | 2.55
303.15 K, x1 = 0.0104 | – | 0.92
303.15 K, x1 = 0.0217 | – | 1.11
303.15 K, x1 = 0.02202 | 1.097 | –
303.15 K, x1 = 0.0341 | – | 1.27
303.15 K, x1 = 0.0476 | – | 1.5
303.15 K, x1 = 0.04761 | 1.485 | –
303.15 K, x1 = 0.0625 | – | 1.72
303.15 K, x1 = 0.07883 | 1.928 | –
303.15 K, x1 = 0.0789 | – | 1.96
303.15 K, x1 = 0.0972 | – | 2.18
303.15 K, x1 = 0.1176 | – | 2.4
303.15 K, x1 = 0.1177 | 2.355 | –
303.15 K, x1 = 0.1406 | – | 2.61
303.15 K, x1 = 0.1666 | 2.703 | 2.78
303.15 K, x1 = 0.1964 | – | 2.9
303.15 K, x1 = 0.2304 | 2.92 | –
303.15 K, x1 = 0.2307 | – | 3
303.15 K, x1 = 0.2707 | – | 3.03
303.15 K, x1 = 0.318 | 2.951 | –
303.15 K, x1 = 0.3181 | – | 3.02
303.15 K, x1 = 0.3749 | – | 2.93
303.15 K, x1 = 0.4443 | – | 2.77
303.15 K, x1 = 0.5303 | 2.547 | –
303.15 K, x1 = 0.5311 | – | 2.56
303.15 K, x1 = 0.6418 | 2.28 | –
303.15 K, x1 = 0.6428 | – | 2.31
303.15 K, x1 = 0.7202 | 2.126 | –
303.15 K, x1 = 0.7916 | – | 1.97
303.15 K, x1 = 0.8271 | 1.912 | –
303.15 K, x1 = 0.9078 | 1.764 | –
308.15 K, x1 = 0.1406 | – | 2.24
308.15 K, x1 = 0.1666 | – | 2.38
308.15 K, x1 = 0.1964 | – | 2.49
308.15 K, x1 = 0.2307 | – | 2.58
308.15 K, x1 = 0.2707 | – | 2.62
308.15 K, x1 = 0.3181 | – | 2.61
308.15 K, x1 = 0.3749 | – | 2.55
308.15 K, x1 = 0.4443 | – | 2.43
308.15 K, x1 = 0.5311 | – | 2.26
308.15 K, x1 = 0.6428 | – | 2.04
308.15 K, x1 = 0.7916 | – | 1.76
308.15 K, x2 = 0.1041 | – | 1.418
308.15 K, x2 = 0.1944 | – | 1.621
308.15 K, x2 = 0.2933 | – | 1.785
308.15 K, x2 = 0.4988 | – | 2.148
308.15 K, x2 = 0.5964 | – | 2.307
308.15 K, x2 = 0.699 | – | 2.385
308.15 K, x2 = 0.7918 | – | 2.32
308.15 K, x2 = 0.8469 | – | 2.111
308.15 K, x2 = 0.8976 | – | 1.787
308.15 K, x2 = 0.9491 | – | 1.279
313.15 K, x1 = 0.02202 | 0.8665 | –
313.15 K, x1 = 0.04761 | 1.14 | –
313.15 K, x1 = 0.07883 | 1.456 | –
313.15 K, x1 = 0.1177 | 1.727 | –
313.15 K, x1 = 0.1666 | 1.967 | –
313.15 K, x1 = 0.2304 | 2.124 | –
313.15 K, x1 = 0.318 | 2.14 | –
313.15 K, x1 = 0.4441 | 2.011 | –
313.15 K, x1 = 0.5303 | 1.9 | –
313.15 K, x1 = 0.6418 | 1.731 | –
313.15 K, x1 = 0.7202 | 1.614 | –
313.15 K, x1 = 0.8271 | 1.491 | –
313.15 K, x1 = 0.9078 | 1.399 | –
323.15 K, x1 = 0.02202 | 0.6974 | –
323.15 K, x1 = 0.04761 | 0.8748 | –
323.15 K, x1 = 0.07883 | 1.105 | –
323.15 K, x1 = 0.1177 | 1.32 | –
323.15 K, x1 = 0.1666 | 1.479 | –
323.15 K, x1 = 0.2304 | 1.613 | –
323.15 K, x1 = 0.318 | 1.656 | –
323.15 K, x1 = 0.4441 | 1.591 | –
323.15 K, x1 = 0.5303 | 1.514 | –
323.15 K, x1 = 0.6418 | 1.398 | –
323.15 K, x1 = 0.7202 | 1.324 | –
323.15 K, x1 = 0.8271 | 1.212 | –
323.15 K, x1 = 0.9078 | 1.133 | –
